The numbers were not newly measured in US20050038042A1, “Modified release composition comprising a short-acting hypnotic for treatment of sleep disorders” (priority 2002, published 2005), which cites them from elsewhere.

The conditions of data set [1]: compared with marketed benzodiazepines.
For data set [2] the following is noted: in humans.

For `CCN(C(C)=O)c1cccc(-c2ccnc3c(C#N)cnn23)c1` [Zaleplon, N-[3-(3-cyanopyrazolo[1,5-a]pyrimidin-7-yl)phenyl]-N-ethylacetamide], the “effects in animal models” value in data set [1] was “sedative, anxiolytic, myorelaxant, and anticonvulsive effects similar to those of marketed benzodiazepines”. Besides, for the setting “clinical trials”, the “effect on sleep onset” value was “effective in shortening sleep onset”. Besides, the safety profile entry (clinical trials, versus previously available benzodiazepine or nonbenzodiazepine hypnotics) is given as “more favorable safety profile”. Also, the “period over which decreased time to sleep onset was shown” value (controlled clinical studies) is reported as “up to 28 days”. The “mean duration of effect” value (human, in vivo) is 4 to 5 h. Where the note is “patients with sleep disorders”, the “total sleep time / number of awakenings” value is recorded as “not been shown to consistently increase total sleep time or decrease the number of awakenings”. Moreover, the “time to maximum plasma concentration (tmax)” value in data set [2] is 48 min.
